Data published in patent US11746086B2, “Non-aggregating heptamethine cyanine fluorophores for in vivo imaging” (The USA, as represented by the Secretary, Department of …, priority 2018, dated 2023).

Experiments:
[1] = Photochemical properties of panitumumab conjugates (absorption/emission spectra, H-aggregation, absolute quantum yield); format: physicochemical
Protocol: (§1) Absolute quantum yields (ΦF) were measured using a Quantaurus-QY spectrometer (Hamamatsu, model C11374). This instrument is equipped with an integrating sphere to determine photons absorbed and emitted by a sample. Measurements were carried out at a concentration of 500 nM in PBS (50 mM, pH 7.4) and self-absorption corrections were performed using the instrument software.
The photochemical properties of these conjugates were analyzed by several methods. Absorption/emission curves were obtained following dilution in 50 mM PBS to yield solutions that were 500 nM in protein concentration. […] A 3 h incubation time at room temperature elapsed prior to acquisition. Conjugates were diluted 40-fold into 1:1 MeOH:50 mM PBS and their absorption spectra were recorded on a plate reader using a 384 well plate transparent in the 280 nm range (i.e. UV Co-Star μclear 384 well plate from Greiner Bio-One).
To examine the relative brightness of these conjugates on an in vivo system, phantom imaging on the Perkin-Elmer IVIS® imaging system was performed.

[2] = system: MDA-MB-468 tumor; experiment: Dose lowering in vivo imaging study (10, 5, 1 μg) of DOL 4 conjugates; parameters: species or system athymic nude mice; details: for tumor signal visualization over dosage range: DOL 4, 10, 5 and 1 μg tail injection
Protocol: (§2) Animal Tumors Models: In vivo studies were performed according to the Frederick National Laboratory for Cancer Research (Frederick, Md.) Animal Care and Use committee guidelines. Fluorescence was longitudinally monitored employing the IVIS spectrum imager (PerkinElmer Inc, Waltham, Mass.). Imager specific Living Image software was used for image acquisition and analysis. Mice body temperature were maintained constant at 37° C. during the imaging procedure with a heated pad located under the anesthesia induction chamber, imaging table, and post procedure recovery cage. All mice were anesthetized in the induction chamber with 3% isoflurane with filtered (0.2 μm) air at 1 liter/minute flow rate for 3-4 minutes and then modified for imaging to 2% with O2 as a carrier with a flow rate of 1 liter/minute. Static 2D images were acquired with the following parameters: excitation filter 745±15 nm, emission filter 800±10 nm, f/stop2, medium binning (8×8) and auto exposure (typically 1-60 seconds). 5-week old female athymic nude mice were purchased from Charles River Laboratories International, Inc. (NCI-Frederick). MDA-MB-468 (5×10^6) in 100 μL of Hanks Balanced Salt Solution were injected the mice subcutaneously in the right dorsum. The size of the tumors were continuously monitored to reach 4-6 mm. In vivo studies were initiated 10 days post cell injection of the mice.
(§3) Data Analysis: Images were obtained using a Pearl Imager (LI-COR) using 800 nm fluorescence channel. Using white light images, the tumors were identified, and regions of interest (ROIs) were located on the tumors, livers, and necks (used as background). The intensities of ROIs were measured based on the total radiance efficiency using fluorescence images and analyzed using Living Image software. Statistics (unpaired t-test) were carried out using Prism 8.
A dose lowering study with the goal of defining an optimal dose for FNIR-Tag conjugates was performed. Three doses, 10 μg, 5 μg, and 1 μg, which span the lower end of the doses used in prior studies, were examined. […]

[3] = system: EGFR+ tumors; experiment: In vivo fluorescence imaging of panitumumab conjugates, 100 μg dose; parameters: species or system athymic nude mice; details: for tumor radiance output relative to IRDye-800CW conjugate: 48 h (peak accumulation), normalized to tumor size
Protocol: as §2, §3
Reduced dye aggregation was speculated to impact the pharmacokinetics. […] Fluorescence dorsal and ventral images were recorded at 0 h, 10 min, 24 h, 48 h, and 1 week post-injection. […]

[4] = Photostability (photooxidation kinetics) of free dyes under 780 nm LED; format: physicochemical; details: for photooxidation k: 1 μM in 50 mM PBS pH 7.4, 780 nm+/−20 nm LED, 20 mW/cm^2
Protocol: Stock solutions of 5 mM FNIR-Tag and IRDye®-800CW in DMSO were diluted into 50 mM PBS (pH=7.4) to afford 1 μM solutions. The photostability was determined using a procedure described previously using a 780 nm+/−20 nm LED at a light intensity of 20 mW/cm^2 (Nani et al., ACS Central Sci 2017, 3:329). […] As expected both of the free dyes have similar photostability.

[5] = Absorption/emission maxima, molar absorption coefficient, absolute quantum yield and brightness of free dyes; format: physicochemical; details: free dye; for ε / λabs / ΦF (PBS): PBS; for ΦF (PBS): absolute quantum yield; for ε × ΦF: brightness in PBS; for Relative brightness (PBS): relative to FNIR-Tag = 1.0; for λem: λexcitation = 740 nm
Protocol: Determination of Molar Absorption Coefficients and Absolute Fluorescence Quantum Yields: Molar absorption coefficients (c) were determined in PBS (pH 7.4) or 1:1 (v/v) MeOH/PBS (pH 7.4) using Beer's law, from plots of absorbance vs. concentration. Measurements were performed in 10 mm path length quartz cuvettes (Hellma 111-QS), maintained at 25° C., with absorbance at the highest concentration≤0.20.
as §1
Properties of FNIR-Tag and IRDye®-800CW are shown below in Table 1. […] Both dyes have similar absorption coefficients (ε), absolute quantum yields (ΦF) and brightness (ε×ΦF) in PBS solution, with free IR-800CW being slightly brighter

[6] = panitumumab conjugates DOL 1, 2, 4, 500 nM in PBS

ε [5]	λabs [5] [nm]	ΦF (PBS) [5]	ε × ΦF [5]	Relative brightness (PBS) [5]	λem [5]	λem ([5]; listed as IR-800CW) [nm]	quantum yield of the free dye ([1]; free dye) [%]	half-life at 1 μM ([4]; buffer, pH 7.4) [min]	Molecule	absolute quantum yield of fluorescence (ΦF) with increasing labeling density ([1]; conjugates DOL 1, 2, 4, PBS, 250 nM effective dye concentration) [%]	fluorescent emission as function of labeling density [1, 6]	fluorescence intensity (total radiance normalized to tumor size) compared with IRDye-800CW conjugates ([2]; DOL 4, 10, 5, 1 μg, 4 h to 7 days)	tumor signal visualization over dosage range [2]	liver uptake (liver-to-background ratio) compared with FNIR-Tag conjugates ([3]; 100 μg, DOL 2 and 4, 10 min time point)	photooxidation k [4]	H-aggregate peak in the absorption spectrum (~705 nm) [1, 6]	tumor radiance output relative to IRDye-800CW conjugate ([3]; DOL 2, 100 μg tail injection) [×]	tumor radiance output relative to IRDye-800CW conjugate ([3]; DOL 4, 100 μg tail injection) [×]	absolute quantum yield of fluorescence (ΦF), end of decrease with increased labeling ([1]; antibody conjugates, high labeling, PBS, 250 nM effective dye concentration) [%]	absolute quantum yield of fluorescence (ΦF), start of decrease with increased labeling ([1]; antibody conjugates, low labeling, PBS, 250 nM effective dye concentration) [%]
–	–	–	–	–	–	–	–	–	FNIR-Tag-panitumumab conjugates	~10	increases with higher labeling density	significantly higher fluorescence intensity	Clearly discernable signals	–	–	–	–	–	–	–
240 000 M^−1 · cm^−1	774	0.087	23 490	1.2	795ª nm	795	–	–	CC1(C)C(=CC=C2CCCC(C=CC3=[N+](CCCCCC(=O)[O-])c4ccc(S(=O)(=O)[O-])cc4C3(C)C)=C2Oc2ccc(S(=O)(=O)[O-])cc2)N(CCCCS(=O)(=O)[O-])c2ccc(S(=O)(=O)[O-])cc21.[Na+].[Na+].[Na+].[Na+] [IRDye®-800CW]	–	nearly constant across the range of labeling density	–	–	significantly higher liver uptake	0.04463	–	–	–	–	–
200 000 M^−1 · cm^−1	765	0.099	19 800	1.0	–	–	10	16.2	COCCOCCOCCN1/C(=C/C=C2\CCCC(/C=C/C3=[N+](CCOCCOCCOC)c4ccc(S(=O)(=O)[O-])cc4C3(C)C)=C2OCCC[N+](C)(C)CCCC(=O)ON2C(=O)CCC2=O)C(C)(C)c2cc(S(=O)(=O)[O-])ccc21 [FNIR-Tag]	–	–	–	–	–	0.04274	does not form a significant H-aggregate band	2.5	7.1	–	–
–	–	–	–	–	–	–	–	–	IRDye®-800CW conjugates: panitumumab labeled with IRDye®-800CW-NHS, comparator conjugates [reference compound]	–	–	–	could not be visualized below 5 μg	–	–	–	–	–	~2.5	~9
